Measurements taken from patent publication EP4644383A1 (Jiangsu Yahong Meditech Co., Ltd., priority 2022, dated 2024).
Where two headings read alike, the source gives them in different places.

Legend:
Type in all cases: biochemical
FGFR3 = target: T1, FGFR3 (Homo sapiens, UniProt P22607); assay: FGFR3 kinase activity inhibition assay (LanthaScreen TR-FRET); settings: for Selectivity (X) FGFR1/FGFR3: ratio of IC50 FGFR1/FGFR3, selectivity towards FGFR3; for Selectivity (X) FGFR2/FGFR3: ratio of IC50 FGFR2/FGFR3, selectivity towards FGFR3; for Selectivity (X) FGFR4/FGFR3: ratio of IC50 FGFR4/FGFR3, selectivity towards FGFR3
T1 construct: FGFR3's cytoplasmic domain [436-806 (terminal) amino acids]; purchased Carna 08-135
Outline: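 Read-out is TR-FRET, with the 520 nm/495 nm emission ratio normalised to DMSO (max) and enzyme-free (min) controls. Enzyme was the FGFR3 cytoplasmic domain, residues 436-806. EDTA (10 mM) stopped the reaction, followed by 60 min at 22 °C before reading.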

FGFR4 = target: T2, FGFR4 (Homo sapiens, UniProt P22455); assay: FGFR4 kinase activity inhibition assay (LanthaScreen TR-FRET)
T2 construct: FGFR4's cytoplasmic domain [460-802 (terminal) amino acids]; purchased Carna 08-136
Description: FGFR1 kinase activity was measured using Invitrogen LanthaScreen™ assay technology, which utilized fluorescently-labeled peptides and terbium-labeled antibodies to directly measure an amount of the phosphorylated substrate through time-resolved fluorescence energy transfer (TR-FRET). • ① The test compounds were diluted: starting from a concentration of 1 µM, with a buffer solution in a three-fold serial dilution, the buffer solution being composed of 50 mM HEPES, 10 mM MgCl2, 0.01% TritonX-100, 0.01% BSA, 4 mM DTT (pH 7.5), and 1% DMSO; • ② 0.01 nM recombinant human GST fusion protein FGFR1's cytoplasmic domain [398-822 (terminal) amino acids] (Carna: 08-133) was formulated into a 2 × solution, mixed well with the test compounds, and incubated at 23°C for 10 minutes; • ③ 28 nM Fluorescein-Poly GT peptide substrate (Life Technologies: PV3611) and 28 µM ATP were formulated into a 2 × solution, mixed well with the test compounds and enzyme in ②, and incubated at 23°C for 30 minutes; • ④ 10 µL of 2nM Tb-PY20 antibody (Life Technologies: PV3552) and 10 mM EDTA were added to quench the kinase reaction, and incubated at 22°C for 60 minutes. • ⑤ The reaction was measured using a PerkinElmer EnVision multimode plate reader through TR-FRET dual wavelength detection. • 1. The RFU values were copied from the Envision program. • 2. The ratio of RFU 520nm/RFU 495nm was calculated. • 3. The value of the ratio was converted to a percentage inhibition value. % Inhibition = (max-data)/(max-min) × 100 [formula]
"Min" represents the ratio of the control without enzyme, "max" represents the ratio of the DMSO control, and "data" represents the ratio of the compounds in wells with different concentrations.
"Top" refers to the maximum response, "Bottom" refers to the minimum response, and "HillSlope" refers to the slope of the curve.
According to the same method as that in the FGFR1 kinase activity inhibition assay, the inhibitory activities against FGFR2, FGFR3 and FGFR4 were tested using FGFR2's cytoplasmic domain [399-821 (terminal) amino acids] (Carna: 08-134), FGFR3's cytoplasmic domain [436-806 (terminal) amino acids] (Carna: 08-135) and FGFR4's cytoplasmic domain [460-802 (terminal) amino acids] (Carna: 08-136), respectively. Table 1 reports the kinase activity inhibition results and selectivity towards FGFR3 of each compound.

FGFR2 = target: T3, FGFR2 (Homo sapiens, UniProt P21802); assay: FGFR2 kinase activity inhibition assay (LanthaScreen TR-FRET)
T3 construct: FGFR2's cytoplasmic domain [399-821 (terminal) amino acids]; purchased Carna 08-134
Outline: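 GST-fused FGFR2 cytoplasmic domain (aa 399-821) was run as in the FGFR1 protocol: preincubated 10 min at 23 °C with compound (3-fold series from 1 µM) in 50 mM HEPES pH 7.5, 10 mM MgCl2, 4 mM DTT, 1% DMSO. A 2× mix of 28 nM fluorescein-poly GT/28 µM ATP then reacted 30 min. Tb-PY20/EDTA quench preceded the TR-FRET 520/495 read.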

FGFR1 = target: T4, FGFR1 (Homo sapiens, UniProt P11362); assay: FGFR1 kinase activity inhibition assay (LanthaScreen TR-FRET)
T4 construct: cytoplasmic domain [398-822 (terminal) amino acids]; purchased Carna 08-133
Outline: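 Emission ratio 520 nm/495 nm by TR-FRET after stopping reaction with 10 mM EDTA and 60 min incubation at 22°C. Inhibition normalized between no-enzyme (min) and DMSO (max) controls, then fitted to a four-parameter curve (Top, Bottom, HillSlope).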

[1] = FGFR3 kinase, TR-FRET, read-out: IC50 (nM) FGFR3
[2] = FGFR4 kinase, TR-FRET, read-out: IC50 (nM) FGFR4
[3] = FGFR2 kinase, TR-FRET, read-out: IC50 (nM) FGFR2
[4] = FGFR1 kinase, TR-FRET, read-out: IC50 (nM) FGFR1

T4 sequence (P11362 398-822): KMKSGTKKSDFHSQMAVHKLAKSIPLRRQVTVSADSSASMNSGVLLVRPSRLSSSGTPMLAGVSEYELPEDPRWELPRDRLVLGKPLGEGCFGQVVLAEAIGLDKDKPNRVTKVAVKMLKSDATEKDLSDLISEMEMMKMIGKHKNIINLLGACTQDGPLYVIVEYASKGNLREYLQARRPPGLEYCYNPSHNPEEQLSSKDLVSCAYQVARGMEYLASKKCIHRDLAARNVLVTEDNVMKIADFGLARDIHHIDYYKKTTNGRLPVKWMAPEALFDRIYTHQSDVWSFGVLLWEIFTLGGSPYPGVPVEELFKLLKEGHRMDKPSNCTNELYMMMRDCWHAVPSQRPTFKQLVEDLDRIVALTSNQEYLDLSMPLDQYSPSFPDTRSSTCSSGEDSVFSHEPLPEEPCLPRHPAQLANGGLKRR
T1 sequence (P22607 436-806): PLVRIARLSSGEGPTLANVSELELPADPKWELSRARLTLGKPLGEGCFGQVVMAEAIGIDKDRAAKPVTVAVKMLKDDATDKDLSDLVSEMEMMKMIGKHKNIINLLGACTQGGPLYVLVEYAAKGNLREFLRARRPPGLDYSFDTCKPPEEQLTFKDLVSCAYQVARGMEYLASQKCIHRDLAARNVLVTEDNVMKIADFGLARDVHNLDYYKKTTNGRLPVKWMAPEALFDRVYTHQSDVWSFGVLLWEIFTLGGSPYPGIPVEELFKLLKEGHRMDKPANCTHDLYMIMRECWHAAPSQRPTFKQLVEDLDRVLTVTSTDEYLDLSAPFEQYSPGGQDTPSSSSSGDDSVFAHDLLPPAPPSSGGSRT
T3 sequence (P21802 399-821): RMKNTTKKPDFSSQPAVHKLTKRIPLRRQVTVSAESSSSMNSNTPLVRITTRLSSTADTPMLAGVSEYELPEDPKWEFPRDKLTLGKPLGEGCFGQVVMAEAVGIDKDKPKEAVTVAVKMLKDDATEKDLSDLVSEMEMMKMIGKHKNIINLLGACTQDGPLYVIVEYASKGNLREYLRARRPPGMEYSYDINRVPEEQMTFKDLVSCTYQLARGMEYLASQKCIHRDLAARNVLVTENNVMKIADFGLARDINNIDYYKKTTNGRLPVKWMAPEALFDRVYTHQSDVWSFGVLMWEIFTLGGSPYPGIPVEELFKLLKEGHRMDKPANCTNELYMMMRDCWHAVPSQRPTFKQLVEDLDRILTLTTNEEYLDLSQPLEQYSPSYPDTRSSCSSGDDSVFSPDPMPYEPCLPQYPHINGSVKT
T2 sequence (P22455 460-802): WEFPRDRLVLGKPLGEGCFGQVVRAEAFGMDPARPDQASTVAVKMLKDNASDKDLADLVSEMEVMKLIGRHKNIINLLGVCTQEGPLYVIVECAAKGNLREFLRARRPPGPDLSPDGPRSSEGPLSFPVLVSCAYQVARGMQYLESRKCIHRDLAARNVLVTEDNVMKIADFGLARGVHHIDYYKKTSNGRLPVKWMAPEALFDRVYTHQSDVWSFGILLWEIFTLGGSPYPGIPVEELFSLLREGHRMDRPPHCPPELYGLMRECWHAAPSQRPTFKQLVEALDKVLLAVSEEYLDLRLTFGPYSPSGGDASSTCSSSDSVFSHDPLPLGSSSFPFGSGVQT

SMILES	Selectivity (X) FGFR1/FGFR3 (FGFR3)	Selectivity (X) FGFR2/FGFR3 (FGFR3)	Selectivity (X) FGFR4/FGFR3 (FGFR3)	IC50 (FGFR3; [1]) [nM]	IC50 (FGFR4; [2]) [nM]	IC50 (FGFR2; [3]) [nM]	IC50 (FGFR1; [4]) [nM]	IC50 (FGFR3) [nM]	IC50 (FGFR4) [nM]	IC50 (FGFR2) [nM]	IC50 (FGFR1) [nM]
C[C@@H](Oc1ccc2[nH]nc(-c3cnn(Cc4cccnc4)c3)c2n1)c1c(Cl)cncc1Cl [Example 28, (R)-5-(1-(3,5-dichloropyridin-4-yl)ethoxy)-3-(1-(pyridin-3-ylmethyl)-1H-pyrazol-4-yl)-1H-pyrazolo[4,3-b]pyridine]	A (A represents 1 ≤ multiple X<20)	A (A represents 1 ≤ multiple X<20)	A (A represents 1 ≤ multiple X<20)	–	–	–	–	< 1	1 to 10	< 1	1 to 10
C[C@@H](Oc1ccc2[nH]nc(-c3cnn(CCN4CCOCC4)c3)c2n1)c1c(Cl)cncc1Cl [Example 31, (R)-4-(2-(4-(5-(1-(3,5-dichloropyridin-4-yl)ethoxy)-1H-pyrazolo[4,3-b]pyridin-3-yl)-1H-pyrazol-1-yl)ethyl)morpholine]	B (B represents 20 ≤ multiple X<50)	A (A represents 1 ≤ multiple X<20)	B (B represents 20 ≤ multiple X<50)	–	–	–	–	< 1	10 to 100	< 1	1 to 10
CNCCNC(=O)c1ccc2[nH]nc(-c3cn(C)nn3)c2c1 [Example 74, 3-(1-methyl-1H-1,2,3-triazol-4-yl)-N-(2-(methylamino)ethyl)-1H-indazole-5-carboxamide]	C (C represents 50 ≤ multiple X<100)	B (B represents 20 ≤ multiple X<50)	D (D represents 100 ≤ multiple X)	10 to 100	> 100	> 100	> 100	–	–	–	–
Cc1c[nH]c(-c2n[nH]c3ccc(C(=O)NCCN(C)C)cc23)n1 [Example 80, N-(2-(dimethylamino)ethyl)-3-(4-methyl-1H-imidazol-2-yl)-1H-indazole-5-carboxamide]	D (D represents 100 ≤ multiple X)	D (D represents 100 ≤ multiple X)	D (D represents 100 ≤ multiple X)	10 to 100	> 100	> 100	> 100	–	–	–	–
CC(Oc1ccc2[nH]nc(-c3cnn(C)c3)c2c1)c1cccc2ncc(Cl)cc12 (centres unmarked) [Example 94, 3-chloro-5-(1-((3-(1-methyl-1H-pyrazol-4-yl)-1H-indazol-5-yl)oxy)ethyl)quin oline]	C (C represents 50 ≤ multiple X<100)	A (A represents 1 ≤ multiple X<20)	B (B represents 20 ≤ multiple X<50)	–	–	–	–	10 to 100	> 100	10 to 100	> 100
CC(C)c1ccc2ncccc2c1C(C)Oc1ccc2[nH]nc(-c3cnn(C)c3)c2c1 (centres unmarked) [Example 107, 6-isopropyl-5-(1-((3-(1-methyl-1H-pyrazol-4-yl)-1H-indazol-5-yl)oxy)ethyl)qu inoline]	B (B represents 20 ≤ multiple X<50)	A (A represents 1 ≤ multiple X<20)	B (B represents 20 ≤ multiple X<50)	1 to 10	> 100	10 to 100	> 100	–	–	–	–
CC(Oc1ccc2[nH]nc(-c3cnn(C)c3)c2c1)c1c(C2CC2)ccc2ncccc12 (centres unmarked) [Example 116, 6-cyclopropyl-5-(1-((3-(1-methyl-1H-pyrazol-4-yl)-1H-indazol-5-yl)oxy)ethyl)qui noline]	B (B represents 20 ≤ multiple X<50)	A (A represents 1 ≤ multiple X<20)	B (B represents 20 ≤ multiple X<50)	1 to 10	> 100	10 to 100	10 to 100	–	–	–	–

Further lines, with some results ahead:

Selectivity (X) FGFR1/FGFR3 (FGFR3)	Selectivity (X) FGFR2/FGFR3 (FGFR3)	Selectivity (X) FGFR4/FGFR3 (FGFR3)	IC50 (FGFR3; [1]) [nM]	IC50 (FGFR4; [2]) [nM]	IC50 (FGFR2; [3]) [nM]	IC50 (FGFR1; [4]) [nM]	SMILES	IC50 (FGFR3) [nM]	IC50 (FGFR4) [nM]	IC50 (FGFR2) [nM]	IC50 (FGFR1) [nM]
A (A represents 1 ≤ multiple X<20)	A (A represents 1 ≤ multiple X<20)	B (B represents 20 ≤ multiple X<50)	< 1	10 to 100	< 1	1 to 10	C[C@@H](Oc1ccc2[nH]nc(-c3cnn(C4CCN(C(=O)CO)C4)c3)c2n1)c1c(Cl)cncc1Cl (stereo partly drawn) [Example 59, 1-(3-(4-(5-((R)-1-(3,5-dichloropyridin-4-yl)ethoxy)-1H-pyrazolo[4,3-b]pyridin-3-yl)-1H-pyrazol-1-yl)pyrrolidin-1-yl)-2-hydroxyethan-1-one]	–	–	–	–
A (A represents 1 ≤ multiple X<20)	A (A represents 1 ≤ multiple X<20)	B (B represents 20 ≤ multiple X<50)	1 to 10	10 to 100	1 to 10	10 to 100	C[C@@H](Oc1ccc2[nH]nc(-c3cnn(CCn4ccnc4)c3)c2n1)c1c(Cl)cncc1Cl [Example 60, (R)-3-(1-(2-(1H-imidazol-1-yl)ethyl)-1H-pyrazol-4-yl)-5-(1-(3,5-dichloropyridin-4-yl)ethoxy)-1H-pyrazolo[4,3-b]pyridine]	–	–	–	–
A (A represents 1 ≤ multiple X<20)	A (A represents 1 ≤ multiple X<20)	B (B represents 20 ≤ multiple X<50)	1 to 10	10 to 100	1 to 10	10 to 100	C[C@@H](Oc1ccc2[nH]nc(-c3cnn(CCc4cccnc4)c3)c2n1)c1c(Cl)cncc1Cl [Example 61, (R)-5-(1-(3,5-dichloropyridin-4-yl)ethoxy)-3-(1-(2-(pyridin-3-yl)ethyl)-1H-pyrazol-4-yl)-1H-pyrazolo[4,3-b]pyridine]	–	–	–	–
A (A represents 1 ≤ multiple X<20)	A (A represents 1 ≤ multiple X<20)	D (D represents 100 ≤ multiple X)	< 1	10 to 100	1 to 10	1 to 10	C[C@@H](Oc1ccc2[nH]nc(-c3cnn(CCN4CCC5(CCNC5=O)CC4)c3)c2n1)c1c(Cl)cncc1Cl [Example 62, (R)-8-(2-(4-(5-(1-(3,5-dichloropyridin-4-yl)ethoxy)-1H-pyrazolo[4,3-b]pyridin-3-yl)-1H-pyrazol-1-yl)ethyl)-2,8-diazaspiro[4.5]dec an-1-one]	–	–	–	–
